Measurements reported in article PMC9172283 (Antiviral Research, 2022).

Tests used:
[1] = tested on: SARS-CoV-2; test: Plaque reduction assay; assay type: cell-based, SARS-CoV-2/NL/2020 strain; settings: ratio between CC50 and EC50; SARS-CoV-2, Vero E6 cells
[2] = MTT cell viability assay in Vero E6 cells; assay type: cell-based; settings: African green monkey
[3] = MTT cell viability assay in MRC-5 cells; assay type: cell-based; settings: human
[4] = tested on: HCoV-OC43; test: Plaque reduction assay against HCoV-OC43 in MRC-5 cells; assay type: cell-based; settings: infected MRC-5 cells
[5] = tested on: SARS-CoV-2; test: Virus yield reduction assay of SARS-CoV-2 in Calu-3 cells; assay type: cell-based; settings: MOI 0.01, 36 h p.i., titration on Vero E6
[6] = target: SARS-CoV-2 M^pro (Severe acute respiratory syndrome coronavirus 2, UniProt P0DTD1); test: FRET-based SARS-CoV-2 M^pro activity assay in vitro; assay type: biochemical; settings: for Inhibitory effect on M^pro catalytic activity at fixed concentration: 100 μM, cut-off 50% of inhibition
[7] = tested on: HCoV-229E; test: microbe, parasite or virus in culture; assay type: cell-based; settings: for EC50: Human coronavirus 229E, MRC5, 144 h, read-out: HCoV-229E EC50
[8] = tested on: SARS-CoV-2 M^pro (NanoLuc-nsp4-M^pro fusion protein); assay type: cell-based

| Compound | SI, Selectivity Index [1] | CC50 at 72 h [2] | IC50 [6] | Inhibitory effect on M^pro catalytic activity at fixed concentration [6] | further results |
| --- | --- | --- | --- | --- | --- |
| O=C(Nc1ccccc1C(=O)NCc1ccccc1)c1cc(S(=O)(=O)N2CCOCC2)ccc1F [Compound 9] | >10 | > 500 µM | – | – | – |
| COC(=O)C1=C(CN2CCN(C(=O)OC(C)(C)C)CC2)NC(=O)NC1c1ccccc1 (stereo not drawn) [Compound 16] | 10 | 401 ± 52 µM | – | – | – |
| O=C(Nc1ccc2c(c1)OCO2)c1nnc(C(=O)N2CCCC(C(=O)NCc3ccccc3)C2)s1 (stereo not drawn) [Compound 5] | 29 | 207 ± 14 µM | 29 ± 3.7 µM | exerted an inhibitory effect | CC50 at 72 h [3]: 100 ± 11.9 µM; Activity towards HCoV-OC43 [4]: retained activity; SARS-CoV-2 titers in supernatants of infected and treated Calu-3 cells [5]: significantly reduced SARS-CoV-2 titers; Activity towards HCoV-229E [7]: retained activity; EC50 [7]: 10.4 ± 4.1 µM |
| Cc1ccc(-c2cc(C(F)(F)F)n3ncc(C(=O)Nc4sc5c(c4C(N)=O)CCCC5)c3n2)cc1 [Compound 27] | 5 | 67.9 ± 16.5 µM | 46.2 ± 7.7 µM | exerted an inhibitory effect | – |
| CCOC(=O)C1=C(CN2CCC(NC(=O)OC(C)(C)C)CC2)NC(=O)NC1c1ccccc1 (stereo not drawn) [Compound 17] | >5 | 228 ± 6 µM | – | – | – |
| Nc1ncnc2c1ncn2[C@@H]1O[C@H](CSCC[C@H](N)C(=O)O)[C@@H](O)[C@H]1O [Compound 22] | >10 | > 500 µM | – | – | – |
| CCOC(=O)C1=C(CN2CCCN(C(=O)OC(C)(C)C)CC2)NC(=O)NC1c1ccc(C)cc1 (stereo not drawn) [Compound 15] | 8 | 113 ± 3 µM | – | – | – |
| COc1ccc(C(=O)Nc2ccccc2C(=O)N[C@H](C(=O)N[C@H](CO)C(C)C)C(C)C)cc1 [Compound 32, N-((S)-1-(((S)-1-Hydroxy-3-methylbutan-2-yl)amino)-3-methyl-1-oxobutan-2-yl)-2-(4-methoxybenzamido)benzamide] | >8 | > 250 µM | > 200 µM | – | – |
| COc1ccc(Cc2nn3c([C@@H](CCCc4ccccc4)[C@@H](C)O)nc(C)c3c(=O)[nH]2)cc1OC [Compound 23] | – | – | – | not a significant inhibitory effect | – |
| CC(C)[C@H](NC(=O)c1ccccc1NC(=O)c1ccc(O)cc1)C(=O)N[C@H](CO)C(C)C [Compound 35, N-((S)-1-(((S)-1-Hydroxy-3-methylbutan-2-yl)amino)-3-methyl-1-oxobutan-2-yl)-2-(4-hydroxybenzamido)benzamide] | >10 | > 250 µM | 19 ± 8.4 µM | – | – |
| COc1ccc2c(c1)c(CC(=O)O)c(C)n2C(=O)c1ccc(Cl)cc1 [Compound 21] | >10 | > 500 µM | – | – | – |
| CCN1CCN(C(C(=O)O)c2c[nH]c3ccc(NC(=O)CCC(=O)O)cc23)CC1 (stereo not drawn) [Compound 14] | >10 | > 500 µM | – | – | – |
| CCC(CC)COC(=O)[C@H](C)N[P@](=O)(OC[C@H]1O[C@@](C#N)(c2ccc3c(N)ncnn23)[C@H](O)[C@@H]1O)Oc1ccccc1 [RMV, remdesivir, reference compound] | – | > 250 µM | – | – | EC50 [7]: 0.09 ± 0.03 µM |
| CCC(C)NC(=O)c1ccccc1NC(=O)c1ccc(C)c(S(=O)(=O)Nc2cccc(NC(=O)c3ccccc3)c2)c1 (stereo not drawn) [Compound 30] | >10 | > 500 µM | – | – | – |
| CCNC(=O)[C@@H](NC(=O)c1ccccc1NC(=O)c1ccc(OC)cc1)C(C)C [Compound 34, (S)-N-(1-(Ethylamino)-3-methyl-1-oxobutan-2-yl)-2-(4-methoxybenzamido)benzamide] | >5 | > 250 µM | – | – | – |
| COc1ccc(C(=O)Nc2ccccc2C(=O)NC(C(=O)Nc2ccccc2)C(C)C)cc1 (stereo not drawn) [Compound 7] | >10 | > 500 µM | 111 ± 2.2 µM | exerted an inhibitory effect | – |
| CCc1cc(Br)cc2c(C(=O)N3CCOCC3)cc(-c3ccc(OC)cc3)nc12 [Compound 19] | 32 | 228 ± 69 µM | – | not a significant inhibitory effect | – |
| CCOc1ccc(NC(=O)C(=O)NCCc2csc3nc(-c4cccs4)nn23)cc1 [Compound 1] | >10 | > 500 µM | 142 ± 12 µM | exerted an inhibitory effect | – |
| CC(NC(=O)C(=O)NCCN1CCOCC1)C(c1cccs1)N1CCN(c2ccccc2)CC1 (stereo not drawn) [Compound 2] | >10 | > 500 µM | – | – | – |

| Compound | SI, Selectivity Index [1] | CC50 at 72 h [2] | IC50 [6] | Inhibitory effect on M^pro catalytic activity at fixed concentration [6] | further results |
| --- | --- | --- | --- | --- | --- |
| COc1ccc(C(=O)Nc2ccccc2C(=O)N[C@H](C(=O)NC2CCCCC2)C(C)C)cc1 [Compound 33, (S)-N-(1-(Cyclohexylamino)-3-methyl-1-oxobutan-2-yl)-2-(4-methoxybenzamido)benzamide] | >7 | > 250 µM | 26.7 ± 7.3 µM | – | – |
| COc1ccc(C(=O)COC(=O)C(Cc2ccccc2)N2C(=O)C3C4C=CC(C4)C3C2=O)cc1 (stereo not drawn) [Compound 18] | >10 | > 500 µM | – | – | – |
| NC(=O)c1c(NC(=O)c2cnn3c(C(F)(F)F)cc(-c4ccccc4)nc23)sc2c1CCCC2 [Compound 25] | >31 | > 250 µM | 26.6 ± 7.4 µM | exerted an inhibitory effect | CC50 at 72 h [3]: > 250 µM; Activity towards HCoV-OC43 [4]: retained activity; SARS-CoV-2 titers in supernatants of infected and treated Calu-3 cells [5]: significantly reduced SARS-CoV-2 titers; EC50 [7]: > 25 µM |
| COc1ccc(C(=O)Nc2ccccc2C(=O)N[C@H](C(=O)Nc2ccccc2)C(C)C)cc1 [Compound 31, (S)-2-(4-Methoxybenzamido)-N-(3-methyl-1-oxo-1-(phenylamino)butan-2-yl)benzamide] | >5 | > 250 µM | 43.7 ± 9.2 µM | – | Fold increase of inhibitory potency against M^pro compared to parental hit 7 ([6]; compared to hit 7): > 2 fold |
| O=C(NC(Cc1ccccc1)C(=O)NCc1ccccn1)OCc1ccccc1 (stereo not drawn) [Compound 12] | 21 | 428 ± 11 µM | – | not a significant inhibitory effect | – |
| CC(=O)NCC(=O)NC1(C(=O)NC(c2ccccc2)c2ccccc2)CCCCC1 [Compound 11] | >10 | > 500 µM | – | – | – |
| CCC(C)C(NC(=O)C1N2C(=O)c3ccccc3C2SC1(C)C)C(=O)NC(CO)C(C)C (stereo not drawn) [Compound 6] | – | > 500 µM | > 100 µM | not a significant inhibitory effect | CC50 at 72 h [3]: > 500 µM; Activity towards HCoV-OC43 [4]: retained activity; SARS-CoV-2 titers in supernatants of infected and treated Calu-3 cells [5]: significantly reduced SARS-CoV-2 titers; Activity towards HCoV-229E [7]: retained activity; EC50 [7]: 22.9 ± 4.9 µM |
| O=C(NCc1ccc(F)cc1)C(=O)NCC(c1cccnc1)N1CCN(c2ccccc2)CC1 (stereo not drawn) [Compound 4] | >24 | > 500 µM | – | not a significant inhibitory effect | CC50 at 72 h [3]: 300 ± 18 µM; Activity towards HCoV-OC43 [4]: retained activity; Activity towards HCoV-229E [7]: retained activity; EC50 [7]: 23.8 ± 9.9 µM |
| O=C(CCC(=O)NNC(=O)C(c1ccccc1)c1ccccc1)NCc1ccccc1 [Compound 10] | >10 | > 500 µM | 128 ± 18.8 µM | exerted an inhibitory effect | – |
| NC(=O)c1c(NC(=O)c2cnn3c(C(F)F)cc(-c4ccccc4)nc23)sc2c1CCCC2 [Compound 28] | >5 | > 250 µM | – | – | – |
| COc1ccc(-c2ocnc2C(=O)NCCCn2cncn2)cc1Cl [Compound 24] | – | > 500 µM | – | not a significant inhibitory effect | – |
| CCOC(=O)C(NC(=O)COc1ccccc1)(Nc1nc2ccccc2s1)C(F)(F)F (stereo not drawn) [Compound 8] | 3 | 68.8 ± 15.4 µM | – | – | – |
| CCC(C)NC(=O)c1ccccc1NC(=O)c1cccc(S(=O)(=O)Nc2ccccc2)c1 (stereo not drawn) [Compound 29] | – | > 500 µM | – | not a significant inhibitory effect | CC50 at 72 h [3]: > 250 µM; Activity towards HCoV-OC43 [4]: retained activity; Activity towards HCoV-229E [7]: retained activity; EC50 [7]: 15.7 ± 4.8 µM |
| COc1ccc(NC2=NC(=O)CC(C(=O)NCc3ccccc3)N2)cc1 (stereo not drawn) [Compound 13] | >10 | > 500 µM | – | – | – |
| COc1ccc(C(=O)CN(C(=O)c2ccc(Cl)cc2)N2C(=O)CCC2=O)cc1 [Compound 20] | >10 | > 500 µM | – | – | – |
| CCOc1ccccc1NC(=O)C(=O)NCC(c1cccnc1)N1CCN(c2ccccc2)CC1 (stereo not drawn) [Compound 3] | >40 | > 500 µM | – | not a significant inhibitory effect | CC50 at 72 h [3]: > 500 µM; Activity towards HCoV-OC43 [4]: retained activity; Activity towards HCoV-229E [7]: retained activity; EC50 [7]: 34.6 ± 8.5 µM |
| CC(C)(C)NC(=O)N[C@H](C(=O)N1C[C@H]2[C@@H]([C@H]1C(=O)NC(CC1CCC1)C(=O)C(N)=O)C2(C)C)C(C)(C)C (stereo partly drawn) [BOC, Boceprevir, reference compound] | – | > 500 µM | – | – | Inhibition of proteolytic cleavage of NanoLuc-nsp4-M^pro in cells [8]: not detected |
| COc1ccc(-c2cc(C(F)(F)F)n3ncc(C(=O)Nc4sc5c(c4C(N)=O)CCCC5)c3n2)cc1 [Compound 26] | 7 | 68.9 ± 10 µM | 57.6 ± 4.1 µM | exerted an inhibitory effect | – |
